Counter-ions that a name gives are not always drawn.
How the values were obtained:
[1] = system: WT TlpALBD; experiment: SPR competition (A-B-A) binding assay; design: species or system Helicobacter pylori SS1; settings: compounds at 10-fold their Kd
Procedure: The two ligands’ binding status can be classified as either independent, shared, or preferential shared sites. For independent sites, ligand A saturates all its binding sites, and ligand B then binds to its independent site; this mode produces additive effects on the SPR signal. […] Finally, it is also possible to have preferential shared sites where ligands share the same binding site, but the protein binds to one ligand preferentially when in equilibrium.
SPR competition assays were performed by using a Biacore S200 instrument and the A-B-A inject function ([56]). Competition A-B-A analyses were used to interrogate the specificity of the potential ligand binding site preferences of TlpALBD and to unravel the nature of the ligand-sensor interactions. This assay was designed to show if a cumulative response is observed when a second analyte (B) is flown across the bound protein saturated with the first analyte (A) (Fig. 4). […] The wild-type TlpALBD protein was immobilized as described above. […] All response data were normalized to a molecular weight of 100 Da for each analyte, allowing direct comparison of responses. Independent-site theoretical values are calculated by taking the sum of individual responses. Shared-site theoretical values are calculated by taking the sum of individual responses divided by the number of individual responses.

[2] = system: TlpALBD; experiment: Saturation transfer difference (STD) NMR; assay type: binding, Helicobacter pylori SS1; settings: 25 μM TlpALBD, 2.5 mM ligand
Procedure: In the saturation transfer difference (STD) NMR experiment, the entire TlpALBD protein was first saturated at the protein resonances, and excess ligand was then added. As the ligand binds and releases from the receptor, saturation transfers from the protein to the bound ligand. This transfer appeared as an […] in the ligand intensity on epitopes that interacted with the TlpALBD protein. […] All STD NMR spectra were acquired in Shigemi tubes (Shigemi, USA) with a Bruker 600-MHz Advance spectrometer at 283 K using a 1^H-13^C-15^N gradient cryoprobe equipped with z-gradients. Protein resonances were saturated at −1.0 ppm (on-resonance) and 33 ppm (off-resonance), with a total saturation time of 2 s. A total of 512 scans per STD NMR experiment were acquired, and a Watergate sequence was used to suppress the residual HDO signal. A spin-lock filter with a 5-kHz strength and a duration of 10 ms was applied to suppress the protein background. On- and off-resonance spectra were stored and processed separately, and the final STD NMR spectra were obtained by subtracting the on- and off-resonance spectra. Control STD NMR experiments were performed identically in the absence of protein.

[3] = system: TlpALBD point mutants; experiment: SPR binding affinity of TlpALBD point mutants relative to WT; design: species or system Helicobacter pylori SS1; settings: Y228A, Y252A, D254A vs WT
Text: The periplasmic portion of TlpA (TlpALBD), amino acids 28 to 299, from Helicobacter pylori SS1 was cloned into a pBH4 expression vector (pBH4_TlpALBD) to generate an N-terminal 6×His-tagged construct, with a tobacco etch virus (TEV) protease site, under the control of isopropyl-β-D-thiogalactopyranoside (IPTG) ([19]). […] TlpALBD and all point mutants were purified as described previously by Sweeney et al. ([19]).
Purified TlpALBD was immobilized on a CM5 series S sensor chip, and binding affinities were tested using a Biacore S200 instrument (GE Healthcare) as described previously ([39], [57], [59]). Briefly, proteins were captured using an amine-coupling kit (GE Healthcare), in which the carboxylmethyl dextran matrix of the sensor chip was activated by the injection of a mixture of 0.2 M 1-ethyl-3-[(3-dimethylamino)propyl]-carbodiimide (EDC) and 0.05 M N-hydroxysuccinimide (NHS), followed by the neutralization of the remaining unreacted NHS ester groups by the injection of 1 M ethanolamine-HCl (pH 8.0). Purified TlpALBD was diluted in 10 mM sodium acetate buffer (pH 4.5) at a concentration of 100 μg/ml for immobilization to the chip. A total of 8,400 response units (RU) of TlpALBD were captured on flow cell 2. […] The data sets were analyzed using Biacore S200 evaluation software 2.0.2; sensorgrams were double-reference subtracted.

| SMILES | SPR response following initial saturation with glucosamine [1] | SPR response after saturation of TlpALBD with fumarate ([1]; compared to theoretical value) | STD NMR signal on binding TlpALBD [2] | SPR response after saturation of TlpALBD with arginine ([1]; compared to theoretical value) | Effect of proximal pocket residue mutations on binding affinity [3] | SPR response following saturation with arginine or fumarate [1] |
| --- | --- | --- | --- | --- | --- | --- |
| N=C(N)NCCC[C@H](N)C(=O)O [Arginine, L-arginine monohydrochloride] | no additive response was observed | did not produce an additional response | significant STD NMR signals were observed | – | – | – |
| O=C(O)/C=C/C(=O)O [Fumarate, sodium fumarate] | no additive response was observed | – | significant STD NMR signal was detected | increased response (additive effect) | – | – |
| N[C@H]1C(O)O[C@H](CO)[C@@H](O)[C@@H]1O (stereo partly drawn) [Glucosamine, D(+)-glucosamine hydrochloride] | – | – | – | – | No proximal pocket residues affected the binding affinity | the response was not additive |

Reference: PMC8406319, “The dCache Chemoreceptor TlpA of Helicobacter pylori Binds Multiple Attractant and Antagonistic Ligands via Distinct Sites” (mBio, 2021)
